Measurements from US12054497B2, “Substituted heterocyclic fused cyclic compound, preparation method therefor and pharmaceutical use thereof” (GENFLEET THERAPEUTICS (SHANGHAI) INC., priority 2019, dated 2024).
Where two headings read alike, the source gives them in different places.

Experiments:
Type in all cases: cell-based, human
[1] = system: phosphorylated ERK in MIA PaCa2 cells with Kras G12C mutation; assay: p-ERK HTRF assay for cells (Test Example 2); details: MIA PaCa2 cells, 2 hours with compound, read-out: p-ERK IC50
Method: MIA PaCa2 was a human pancreatic carcinoma cell line with Kras G12C mutation, which was cultured in a DMEM with 10% FBS and 2.5% Horse serum. Cells in logarithmic growth phase were detached with trypsin and EDTA, collected and counted, and 2.5E4 cells were seeded to a 96-well cell culture plate and cultured overnight. 1000× stock solutions of compounds at a concentration gradient of 3.16 were prepared by using DMSO, and diluted 200 times by the medium into 5× stock solutions of compounds. On the day after cell seeding, 5× stock solution of a compound was added to each well of cell culture plate, with a final concentration being 1× and a DMSO content of 0.1%. DMSO was used as the control. The residual culture was removed after culturing for 2 hours with the compound. To each well, 50 ul of cell lysis buffer was added and mixed uniformly and incubation for 30 minutes. Subsequently, 16 ul of mixed solution was transferred to a 96-well plate with white unclear bottom, and 16 ul of cell lysis buffer was added to the blank control group. After the completion of transfer, 4 ul of p-ERK HTRF antibody mixture was added to each well, and a value of fluorescence intensity was read after incubation for 4 hours. The inhibition rate (IR) of the compound was calculated by the following equation: IR (%)=(RLU control-RLU compound)/(RLU control−RLU blank)×100%. The value of IC50 was calculated by fitting a gradiently diluted concentration of the compound and the corresponding cell proliferation inhibition rate using a Prism 8 four-parameter method.

[2] = system: MIA PaCa-2 cells with Kras G12C mutation; assay: Cell proliferation inhibition experiment, 3D spheroid, CellTiter-Glo (Test Example 3); details: 5 days, read-out: MIA-PaCa2 IC50
Method: MIA PaCa-2 was a human pancreatic carcinoma cell line with Kras G12C mutation, which was cultured in a DMEM with 10% FBS and 2.5% Horse serum. A549 was a human lung adenocarcinoma cell line with Kras G12S mutation, which was cultured in an F-12K medium with 10% FBS. Cells in logarithmic growth phase were detached with trypsin and EDTA, collected and counted, and 200 MIA PaCa-2 cells and 400 A549 cells were seeded to 384-well spheroid plates, respectively, and cultured overnight to establish 3D cell models. 1000× stock solutions of compounds at a concentration gradient of 3.16 were prepared by using DMSO, and diluted 100 times by the medium into 10× stock solutions of compounds. On the day after cell seeding, 10× stock solution of a compound was added to each well of cell culture plate, with a final concentration being 1× and a DMSO content of 0.1%. DMSO was used as the control, and the medium was used as the blank. After 5 days of cell culture with the compound, 30 μl of CellTiter-Glo working solution was added to each well, and mixed uniformly and incubation for 30 minutes. After standing at room temperature for 30 minutes, 40 μl of mixed solution was transferred to a 384-well plate with white unclear bottom. A value of luminescence intensity was then read, and a cell proliferation inhibition rate (IR) (%)=(RLU control−RLU compound)/(RLU control−RLU blank)×100%. The value of IC50 was calculated by fitting a gradiently diluted concentration of the compound and the corresponding cell proliferation inhibition rate using an XLFit four-parameter method.

[3] = system: NCI-H358 cells with Kras G12C mutation; assay: Cell proliferation inhibition experiment, 3D spheroid, CellTiter-Glo (Test Example 1); details: 5 days
Method: (§1) NCI-H358 was a human NSCLC cell line with Kras G12C mutation, which was cultured in a RPMI-1640 medium with 10% fetal bovine serum (FBS). A549 was a human lung adenocarcinoma cell line with Kras G12S mutation, which was cultured in an F-12K medium with 10% FBS. Cells in logarithmic growth phase were detached with trypsin and EDTA, collected and counted, and H358 was regulated to 1.8E4 cells/ml by using an RPMI-1640 medium with 2% FBS, while A549 was regulated to 8.9E3 cells/ml with an F-12K medium containing 2% FBS. 800 (45 μl) H358 cells and 400 (45 μl) A549 cells were seeded to 384-well spheroid plates, respectively, and cultured overnight to establish 3D cell models. 1000× stock solutions of compounds at a concentration gradient of 3.16 were prepared by using DMSO, and diluted 100 times by the medium with 2% FBS into 10× stock solutions of compounds. On the day after cell seeding, 5 μl of 10× stock solution of a compound was added to each well of cell culture plate, with a final concentration being 1× and a DMSO content of 0.1%. DMSO was used as the control, and the medium with 2% FBS was used as blank control group. After 5 days of cell culture with the compound, 25 μl of CellTiter-Glo working solution was added to each well, and mixed uniformly at 400 rpm and incubation for 30 minutes. After standing at room temperature for 30 minutes, 40 μl of mixed solution was transferred to a 384-well plate with white clear bottom. A value of luminescence was then read, and a cell proliferation inhibition rate (IR) (%)=(RLU control-RLU compound)/(RLU control−RLU blank)×100%. The value of IC50 was calculated by fitting a gradiently diluted concentration of the compound and the corresponding cell proliferation inhibition rate using a Prism 6 four-parameter method.

[4] = system: A549 cells with Kras G12S mutation; assay: as above; details: 5 days
Method: as §1

[5] = Homo sapiens, MIA PaCa-2, 120 h

SMILES	IC50 ([1]; Homo sapiens, MIA PaCa-2, 2 h)	IC50 [2, 5]	IC50 ([3]; Homo sapiens, NCI-H358, 120 h)	IC50 ([4]; Homo sapiens, A549, 120 h)	IC50 [1]	IC50 [2]	IC50 [3]	IC50 [4]
C=CC(=O)N1CCN2c3c(c(=O)n(-c4c(C)ccnc4C(C)C)c4nc(-c5c(O)cccc5F)c(F)cc34)N(C)C(=O)CC2C1 (centres unmarked) [Compound Z43, 3-acryloyl-12-fluoro-11-(2-fluoro-6-hydroxyphenyl)-9-(2-isopropyl-4-methylpyridin-3-yl)-7-methyl-1,2,3,4,4a,5,7,9-octahydropyrazino[1′,2′:4,5][1,4]diaza[2,3-c][1,8]naphthyridin-6,8-dione]	439 nM	220 nM	49 nM	29200 nM				
C=CC(=O)N1CCN2c3c(c(=O)n(-c4c(C)ccnc4C(C)C)c4nc(-c5c(O)cccc5F)c(Cl)cc34)OC[C@H]2C1 [Compound Z6, (4aR)-3-acryloyl-11-chloro-10-(2-fluoro-6-hydroxyphenyl)-8-(2-isopropyl-4-methylpyridin-3-yl)-1,2,3,4,4a,5-hexahydropyrazino[1′,2′:4,5][1,4]oxazino[2,3-c][1,8]naphthyridin-7(8H)-one]	313 nM	85 nM	35 nM	11300 nM				
C=CC(=O)N1CCN2c3c(c(=O)n(-c4c(C(C)C)ncnc4C(C)C)c4nc(-c5c(O)cccc5F)c(F)cc34)N(C)C(=O)[C@H]2C1 [Compound Z41, (4aR)-3-acryloyl-8-(4,6-diisopropylpyrimidin-5-yl)-11-fluoro-10-(2-fluoro-6-hydroxyphenyl)-6-methyl-2,3,4,4a,6,8-hexahydro-1H-pyrazino[1′,2′:4,5]pyrazino[2,3-c][1,8]naphthyridin-5,7-dione]	279 nM	44 nM	17 nM	> 30000 nM				
C=CC(=O)N1CCN2c3c(c(=O)n(-c4c(C)ccnc4C(C)C)c4nc(-c5c(O)cccc5F)c(F)cc34)NC(=O)CC2C1 (centres unmarked) [Compound Z42, 3-acryloyl-12-fluoro-11-(2-fluoro-6-hydroxyphenyl)-9-(2-isopropyl-4-methylpyridin-3-yl)-1,2,3,4,4a,5,7,9-octahydropyrazino[1′,2′:4,5][1,4]diaza[2,3-c][1,8]naphthyridin-6,8-dione]	566 nM	128 nM	53 nM	> 30000 nM				
C=CC(=O)N1C[C@@H]2COc3c(c4cc(F)c(-c5c(F)cccc5OC)nc4n(-c4c(C)ccnc4C(C)C)c3=O)N2C[C@H]1C [Compound Z3a, (2R,4aR)-3-acryloyl-11-fluoro-10-(2-fluoro-6-methoxyphenyl)-8-(2-isopropyl-4-methylpyridin-3-yl)-2-methyl-1,2,3,4,4a,5-hexahydropyrazino[1′,2′:4,5][1,4]oxopyrazino[2,3-c][1,8]naphthyridin-7(8H)-one]	273 nM	70 nM	17 nM	> 10000 nM				
C=CC(=O)N1CCN2c3c(c(=O)n(-c4c(C)ccnc4C(C)C)c4nc(-c5c(O)cccc5F)c(F)cc34)N(CC)C(=O)[C@H]2C1 (single isomer, unassigned) [Compound Z30-2]					488 nM	130 nM	47 nM	> 30000 nM

More lines, main results first:

IC50 ([1]; Homo sapiens, MIA PaCa-2, 2 h)	IC50 [2, 5]	IC50 ([3]; Homo sapiens, NCI-H358, 120 h)	IC50 ([4]; Homo sapiens, A549, 120 h)	SMILES	IC50 [1]	IC50 [2]	IC50 [3]	IC50 [4]
170 nM	103 nM	24 nM	9240 nM	[2H]C([2H])([2H])N1C(=O)[C@H]2CN(C(=O)C=C)[C@H](C)CN2c2c1c(=O)n(-c1c(C(C)C)ncnc1C(C)C)c1nc(-c3c(F)cccc3OC)c(F)cc21 [Compound Z44a, (2R,4aR)-3-acryloyl-8-(4,6-diisopropylpyrimidin-5-yl)-11-fluoro-10-(2-fluoro-6-methoxyphenyl)-2-methyl-6-(methyl-d3)-2,3,4,4a,6,8-hexahydro-1H-pyrazino[1′,2′:4,5]pyrazino[2,3-c][1,8]naphthyridin-5,7-dione]				
88 nM	34 nM	11 nM	> 30000 nM	[2H]C([2H])([2H])N1C(=O)[C@H]2CN(C(=O)C=C)[C@H](C)CN2c2c1c(=O)n(-c1c(C(C)C)ncnc1C(C)C)c1nc(-c3c(O)cccc3F)c(F)cc21 [Compound Z44, (2R,4aR)-3-acryloyl-8-(4,6-diisopropylpyrimidin-5-yl)-11-fluoro-10-(2-fluoro-6-hydroxyphenyl)-2-methyl-6-(methyl-d3)-2,3,4,4a,6,8-hexahydro-1H-pyrazino[1′,2′:4,5]pyrazino[2,3-c][1,8]naphthyridin-5,7-dione]				
224 nM	68 nM	12 nM	10300 nM	C=CC(=O)N1C[C@@H]2C(=O)N(C)c3c(c4cc(F)c(-c5c(O)cccc5F)nc4n(-c4c(C)cc(C)nc4C(C)C)c3=O)N2C[C@H]1C [Compound Z46]				
78 nM	12 nM	11 nM	> 30000 nM	C=CC(=O)N1C[C@@H]2C(=O)N(C)c3c(c4cc(F)c(-c5c(O)cccc5F)nc4n(-c4c(C(C)C)ncnc4C(C)C)c3=O)N2C[C@H]1C [Compound Z40, (2R,4aR)-3-acryloyl-8-(4,6-diisopropylpyrimidin-5-yl)-11-fluoro-10-(2-fluoro-6-hydroxyphenyl)-2,6-dimethyl-2,3,4,4a,6,8-hexahydro-1H-pyrazino[1′,2′:4,5]pyrazino[2,3-c][1,8]naphthyridin-5,7-dione]				
160 nM	18 nM	16 nM	> 10000 nM	C=CC(=O)N1C[C@@H]2COc3c(c4cc(F)c(-c5c(O)cccc5F)nc4n(-c4c(C)ccnc4C(C)C)c3=O)N2C[C@H]1C [Compound Z3, (6aR,9R)-8-acryloyl-3-fluoro-2-(2-fluoro-6-hydroxyphenyl)-13-(2-isopropyl-4-methylpyridin-3-yl)-9-methyl-6,6a,7,8,9,10-hexahydropyrazino[1′,2′:4,5][1,4]oxopyrazino[3,2-c][1,8]naphthyridin-12(13H)-one]				
